Results as given in publication PMC6562610, “Inhibition of Hedgehog Signaling in Fibroblasts, Pancreatic, and Lung Tumor Cells by Oxy186, an Oxysterol Analogue with Drug-Like Properties” (Cells, 2019).
“Also recorded” adds a separate entry of the source.

Assays:
[1] = system: 8XGliBS-luciferase reporter responsive to Gli1 in NIH3T3-E1 cells; test: CM-induced 8XGliBS-luciferase reporter assay; assay type: cell-based, mouse; conditions: 72 h treatment
Method: NIH3T3-E1 and Sufu^−/− cells cultured in 24-well plates at 90% confluence were transiently transfected with 0.1 µg of Gli response-element reporter (pGL3b-8xGli-Luciferase) plasmid, and 10 ng of pTK-Renilla-Luciferase plasmid with or without co-transfection with 10 ng of Gli1 overexpression vector, pSRα-Gli1, as previously described using Lipofectamine LTX Plus transfection reagent (Invitrogen). Twenty-four h after transfection, cells were treated with test agents for 72 h. Then the firefly and Renilla luciferase activities were measured using a dual luciferase kit (Promega, Madison, WI, USA) and a GloMax-96 Microplate Luminometer. The firefly luciferase activities were normalized to the Renilla luciferase activities. Data are reported as the mean of triplicate determinations ± SD.
Figure 3 Inhibition of ligand-induced Hedgehog signaling. NIH3T3 cells were pretreated for 2 h with the oxysterols or various inhibitors, as indicated, in DMEM containing 5% FBS. Next, cells were treated with CAPAN-1 conditioned medium (CM) in the absence or presence of oxysterols or inhibitors. After 72 h, RNA was extracted and analyzed by Q-RT-PCR for the expression of Hh target genes Gli1 (a,b,d) and Ptch1 (c), and normalized to Oaz1 expression. […] Luciferase activity was measured and normalized to the Renilla luciferase activity. […]

[2] = system: Shh expression in CAPAN-1 cells; test: Inhibition of Shh expression in CAPAN-1 cells, Q-RT-PCR; assay type: cell-based, human; conditions: 72 h
From the text: NIH3T3-E1 fibroblasts were obtained from ATCC (Manassas, VA) and cultured, as previously described. CAPAN-1 and PANC-1 human pancreatic cancer cells were obtained from ATCC and cultured in Dulbecco’s Modified Eagle Medium (DMEM) containing 10% heat-inactivated fetal bovine serum (FBS) (Hyclone Laboratories, Logan, UT, USA) and antibiotics, as previously described. The human lung cancer cell lines A549 and H2030 were obtained from ATCC and cultured in RPMI-1640 containing 10% FBS. The human hepatoma cell line HepG2 was obtained from ATCC and cultured in DMEM containing 10% FBS. Mouse embryonic fibroblasts (MEFs) from suppressor of fused (Sufu) null mice (Sufu^−/−) were provided by Dr. Philip Beachy of Stanford University and cultured in DMEM containing 10% FBS. Gant61, SB431542 and vismodegib (GDC0449) were obtained from Cayman Chemical, HPI-1 was obtained from Abcam. For experiments, cells were treated in a medium containing 5% FBS.
Total RNA was extracted with the RNeasy Plus Mini Kit from Qiagen, according to the manufacturer’s instructions. One microgram of RNA was reverse-transcribed using an iScript Reverse Transcription Supermix from Bio-Rad, to make single-stranded cDNA. The cDNAs were then mixed with Qi SYBR Green Supermix (Bio-Rad, Hercules, CA, USA) for quantitative RT-PCR assay using a Bio-Rad I-cycler IQ quantitative thermocycler. All PCR samples were prepared in triplicate wells in a 96-well plate. […] Fold changes in gene expression were calculated using the ΔΔCt method. […]
Figure 4 Inhibition of Gli and Shh expression in (a) PDAC (PANC-1) and (b,c) human lung cancer cells (A549 and H2030, respectively) by Oxy186. Cells were treated with the compounds as indicated in DMEM or RPMI 1640 containing 5% FBS for (a) 48 or (b,c) 72 hours, then RNA was extracted and analyzed by Q-RT-PCR for the expression of Gli1 and normalized to GAPDH expression. (d) CAPAN-1 cells were treated with the compounds, as indicated, in DMEM containing 5% FBS for 72 h, then RNA was extracted and analyzed by Q-RT-PCR for the expression of Shh and normalized to GAPDH expression. […]

[3] = system: CAPAN-1 cells; test: Cell counting assay, CAPAN-1; assay type: cell-based, human; conditions: 96 h
Method: A549 and H2030 cells cultured in 12-well plates at 20% confluence were treated with Oxy186, HPI-1, Gant61, or GDC0449 for 96 hours and then trypsinized and suspended in fresh medium. An aliquot of cell suspension was applied to a hemocytometer and counted under a microscope.
Figure 6 Inhibition of human pancreatic and lung cancer cell proliferation by Oxy186. (a,c) A549, (b) and (d) H2030, (e) PANC-1, and (f) CAPAN-1 cells were treated with the compounds as indicated in RPMI 1640 (a–d) or DMEM (e,f) containing 5% FBS for 96 h and then were trypsinized and counted. Data from a representative experiment are reported as the mean of triplicate determinations ± SD (* p < 0.05 vs. Control; ** p < 0.01 vs. control).

[4] = system: LXR target gene Abca1; test: Induction of LXR target gene Abca1 in NIH3T3 cells, Q-RT-PCR; assay type: cell-based, mouse
Method: Total RNA was extracted with the RNeasy Plus Mini Kit from Qiagen, according to the manufacturer’s instructions. One microgram of RNA was reverse-transcribed using an iScript Reverse Transcription Supermix from Bio-Rad, to make single-stranded cDNA. The cDNAs were then mixed with Qi SYBR Green Supermix (Bio-Rad, Hercules, CA, USA) for quantitative RT-PCR assay using a Bio-Rad I-cycler IQ quantitative thermocycler. All PCR samples were prepared in triplicate wells in a 96-well plate. After 40 cycles of PCR, melt curves were examined in order to ensure primer specificity. Fold changes in gene expression were calculated using the ΔΔCt method. Primers used for mouse were as follows: Oaz1 (5’-CCACTGCTTCGCCAGAGAG-3’) and (5’-CCCGGACCCAGGTTACTA-3’), Gli1 (5’-[…]-3’ and 5’-[…]-3’), Ptch1 (5’-CCATCGGCGACAAGAACC-3’ and 5’-[…]-3’), Hip (5’-[…]-3’ and 5’-[…]-3’), and Abca1 (5’-[…]-3’ and 5’-[…]-3’). Primers used for human were as follows: SREBP1c (5’-CGCTCCTCCATCAATGACA-3’ and 5’-[…]-3’), GAPDH (5’-[…]-3’ and 5’-[…]-3’), SHH (5’-CGGAGCGAGGAAGGGAAAG-3’) and (5’-[…]-3’), and GLI1 (5’-GAAGCCGAGCCGAGTATC-3’ and 5’-[…]-3’).
Figure 7 Induction of LXR target gene expression by Oxy186 and LXR agonist TO901317 (TO). (a) NIH3T3 cells and (b) HepG2 cells were treated with DMEM containing 5% FBS in the presence or absence of TO (2 µM) or Oxy186 (10 µM). […] Data from a representative experiment are reported as the mean of triplicate determinations ± SD (** p < 0.01 vs. control).

## C[C@]12CC[C@H](O)C[C@@H]1CC[C@@H]1[C@@H]2CC[C@@]2(C)[C@H]1CC[C@@H]2[C@](C)(O)CCc1ccc(F)cc1 [Oxy186, (3S,5S,8R,9S,10S,13S,14S,17S)-17-((R)-4-(4-fluorophenyl)-2-hydroxybutan-2-yl)-10,13-dimethylhexadecahydro-1H-cyclopenta[a]phenanthren-3-ol]
[1]
  Inhibition of CM-induced 8XGliBS-luciferase reporter activity: significantly inhibited
[2]
  Inhibition of Shh expression: robustly inhibited; also recorded: significant inhibition
[3]
  Anti-proliferation effect: significant anti-proliferation effects; also recorded: moderate anti-proliferative effects
[4]; Figure 8b drug-like properties summary
  LXR agonism (Figure 8b summary): Weak LXR agonist
[4]; NIH3T3-E1 cells, up to 10 µM
  Induction of expression of LXR target gene Abca1: only modestly induced
